Laboratory results reported in patent US20240173369A1 (priority 2021, published 2024).
≈ marks a conversion by molar mass, not a printed value. Values belong to the molecule of their own block, whether it stands above or below them.

Tests used:
[1] = system: Pseudomonas aeruginosa strains 883, 762, PAO1; assay: Synergism with antibiotic in liquid infection (OD600 growth curves); assay type: cell-based
Description: To test the efficacy of the phage and antibiotics in liquid culture, bacterial host cells were grown overnight in TSB at 37° C. with shaking at 180 rpm to OD600>1.5. In addition, each phage was diluted to a concentration of 5×10^7 PFU/ml in TSB and used individually or combined equally with other phages into a cocktail. Then, 1 mM ions were added, and 200 μL was dispensed per well in a 96-well plate to a final concentration of […]. For no phage control (NPC), TSB containing 1 mM ions was used. Antibiotics was added to the relevant wells (aztreonam 4 μg/mL, colistin 2 μg/mL for “883,” 4 μg/mL for “762” and 6 μg/mL for PAO1). Then, 2 μL of the bacterial culture was added to the wells (dilution of 1:100). TSB containing 1 mM ions was used as NPC. Two repeats were done for each treatment, and TSB media served as a blank. 50 μL of mineral oil added were added to each well to reduce evaporation of the samples, and the plate was covered with a sterile film to allow for bacterial growth and keep the culture sterile. Plates were incubated for approximately 30 hours in a plate reader at 37° C. with shaking, and OD600 was measured every 20 minutes. Two biological repeats were performed for the assay.

P. aeruginosa = assay: Minimal inhibitory concentration; assay type: cell-based; conditions: Pseudomonas aeruginosa
[2] = system: P. aeruginosa embedded in pre-formed biofilm; assay: Viability of P. aeruginosa embedded in pre-formed biofilm (BacTiter-Glo); assay type: cell-based, Pseudomonas aeruginosa; conditions: 24 h biofilm, 6 hours treatment; RLU converted to cCFU
Description: To test the effect of phage on biofilm, starters of the relevant bacteria were grown overnight. Three isolated single colonies of the relevant strains were picked into 3 mL TSB and shook overnight at 37° C., 180 rpm, to an OD600>1, one starter used for each of two biological repeats. The next day, the starters were dispersed in 96 wells plate and the biofilm was left to form for 24 hours: cultures were diluted 1:100 in 3 mL fresh TSB (Tryptic Soy Broth) medium and OD600 was adjusted to ˜0.05 (˜4×10^7 CFU/mL). 200 μL of the diluted inoculums were added per well in a 96 well culture plate (Biofil, cat #TCP-011-096) according to the plate layout. 200 μL TSB was used for blank wells. […] After the incubation period, the supernatant was carefully removed (media, waste, phages/antibiotics, and planktonic cells) the biofilm was washed again with 200 μL PBS (Phosphate-buffered saline, Hylabs, cat #BP655) and its biomass measured (staining with crystal violet (CV) and/or viable cells (plating for CFU enumeration).
For host cells viability assessment, the BacTiter-Glo (Promega, cat #G8231) method was used. The method measures viable bacterial cells based on quantification of the ATP present in the viable cells. The readout is a luminescent signal (in relative light units (RLU)) in an ATP-dependent reaction. […]

Structure (SMILES): NC[C@H]1O[C@H](O[C@H]2[C@H](O)[C@@H](O[C@H]3O[C@H](CO)[C@@H](O)[C@H](N)[C@H]3O)[C@H](N)C[C@@H]2N)[C@H](N)C[C@@H]1O [Tobramycin, tobramycin]
time growth was suppressed ([1]; PsA strains, single treatment alone): approximately 25 hours

MIC (P. aeruginosa): 4 µg/mL (≈ 13.4 µM)
Structure (SMILES): C[C@@H](O)[C@H]1C(=O)N2C(C(=O)O)=C(SCCN=CN)C[C@H]12 [antibiotic, imipenem]
reduction of bacterial burden of embedded PsA [2]: ~1 logs

Structure (SMILES): C[C@H]1[C@H](NC(=O)/C(=N\OC(C)(C)C(=O)O)c2csc(N)n2)C(=O)N1S(=O)(=O)O [aztreonam]
effect on bacterial growth / appearance of bacteria mutants ([1]; PsA strains (e.g., PAO1, 883)): slower bacterial growth throughout the observed period
